Source: patent US12703706B2, “Anthelmintic compounds comprising a thienopyridine structure” (Intervet Inc., priority 2020, dated 2026)

Molecular target: human Maxi K channel (BK channel), KCNMA1 (KCa1.1) and beta1 (KCNMB1) subunits (Homo sapiens, UniProt Q12791)
Sequence (Q12791 1-1178 isoform Q12791-5): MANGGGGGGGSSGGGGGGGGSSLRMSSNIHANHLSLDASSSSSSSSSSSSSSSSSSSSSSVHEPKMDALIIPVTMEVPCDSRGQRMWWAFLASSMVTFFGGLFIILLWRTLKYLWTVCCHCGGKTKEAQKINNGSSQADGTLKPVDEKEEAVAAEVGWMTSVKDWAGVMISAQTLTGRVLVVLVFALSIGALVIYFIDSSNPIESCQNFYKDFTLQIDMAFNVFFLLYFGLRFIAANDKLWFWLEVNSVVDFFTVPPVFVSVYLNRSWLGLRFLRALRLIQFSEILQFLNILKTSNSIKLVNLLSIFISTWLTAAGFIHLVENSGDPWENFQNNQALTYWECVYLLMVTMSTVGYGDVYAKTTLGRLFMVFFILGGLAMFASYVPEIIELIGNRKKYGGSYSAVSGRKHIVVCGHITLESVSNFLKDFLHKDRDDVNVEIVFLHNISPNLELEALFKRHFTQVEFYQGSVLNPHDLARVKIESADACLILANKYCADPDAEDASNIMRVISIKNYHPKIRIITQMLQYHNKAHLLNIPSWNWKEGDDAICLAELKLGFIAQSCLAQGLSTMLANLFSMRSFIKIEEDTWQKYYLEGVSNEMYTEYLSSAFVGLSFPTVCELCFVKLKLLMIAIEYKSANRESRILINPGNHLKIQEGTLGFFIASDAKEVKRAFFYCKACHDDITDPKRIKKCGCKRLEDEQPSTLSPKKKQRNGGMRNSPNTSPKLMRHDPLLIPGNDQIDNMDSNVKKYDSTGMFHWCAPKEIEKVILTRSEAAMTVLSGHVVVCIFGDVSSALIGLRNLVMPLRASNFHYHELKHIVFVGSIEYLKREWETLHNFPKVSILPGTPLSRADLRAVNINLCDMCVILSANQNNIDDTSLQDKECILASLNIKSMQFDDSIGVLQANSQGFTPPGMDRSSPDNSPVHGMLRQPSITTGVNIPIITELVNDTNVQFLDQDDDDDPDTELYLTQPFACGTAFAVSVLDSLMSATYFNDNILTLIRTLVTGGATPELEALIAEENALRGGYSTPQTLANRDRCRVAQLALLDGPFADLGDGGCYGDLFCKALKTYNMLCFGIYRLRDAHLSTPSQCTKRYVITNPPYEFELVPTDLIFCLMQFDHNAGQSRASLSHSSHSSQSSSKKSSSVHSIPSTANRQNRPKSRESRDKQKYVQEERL
Sequence (Q16558 whole entry partner): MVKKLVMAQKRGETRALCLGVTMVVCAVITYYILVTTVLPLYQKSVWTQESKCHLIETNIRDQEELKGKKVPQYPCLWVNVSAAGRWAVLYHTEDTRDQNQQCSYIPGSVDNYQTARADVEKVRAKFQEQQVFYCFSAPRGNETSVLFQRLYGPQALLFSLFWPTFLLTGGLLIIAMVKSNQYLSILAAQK
Experimental: In Vitro Assay: Agonistic Activity at the Human Maxi K Channel (BK Channel)
A CHO K1 cell line was stably transfected with the KCNMA1 (KCa1.1, U11058) and betal (KCNMB1) subunits of the human Maxi K channel (Ponte et al, Molecular Pharmacology 2012, 81(4), 567-577).
Cells were seeded in microtiter plates (black 384-well MTP, clear bottom) in a concentration of 20,000 cells/well in 25 μl medium and cultured for 20 to 24 hours at 37° C. and 5% CO2. After incubation, 25 μl of FMP-dye Blue-Tyrode's was added to each well and incubated at room temperature for 30 min. Ten minutes after addition of 12.5 μl compound solution, the plates are transferred to the FLIPR for measurement.
For the membrane potential measurements, plates were placed in the FLIPR Penta (Molecular Devices). The baseline measurement of the fluorescence was stared for 20 sec (Exc. 510-545 nm, Emm. 565-625 nm). Potential channel opening measurement was started by addition of 25 μl KCl-Tyrode (final assay concentration of the KCl-Tyrode: 70 mM KCl, 2 mM CaCl2, 1 mM MgCl2, 0.8 mM NaH2PO4, 5 mM Glucose, 28 mM Hepes, pH 7.4, including the voltage sensitive dye). The complete measurement takes 150 s.
EC50 values were determined in triplicate utilizing compound dilution series. The data were determined at least in two independent tests. The data were proceeded by using the ActivityBase XE Runner software (IDBS) for curve fitting and calculation of the half-maximal effective concentration.

`O=C(N[C@H]1CCOc2ccccc21)c1cnc2c(-c3cc(F)cc(F)c3F)csc2c1NCCO` [Compound 94] and `CN(C)c1c(C(=O)N[C@H]2CCOc3ccccc32)cnc2c(-c3cc(F)cc(F)c3F)csc12` [Compound 23] cannot be ordered by EC50: greater than 30 µM for the first, greater than 30 µM for the second.

`O=C(N[C@H]1CCc2ccccc21)c1cnc2c(-c3cc(F)cc(F)c3F)csc2c1N1CCOCC1` [Compound 16] and `O=C(N[C@H]1CCc2ccccc21)c1cnc2c(-c3cc(Cl)cc(Cl)c3)csc2c1N1CCOCC1` [Compound 3] cannot be ordered by EC50: greater than 30 µM for the first, greater than 30 µM for the second.

`O=C(N[C@H]1CCOc2ccccc21)c1cnc2c(-c3cccc(F)c3F)csc2c1NC1CC1` [Compound 87] and `CN(C)c1c(C(=O)N[C@H]2CCOc3ccccc32)cnc2c(-c3cccc(F)c3F)csc12` [Compound 46] cannot be ordered by EC50: greater than 30 µM for the first, greater than 30 µM for the second.

`Cc1sc2c(N3CCOCC3)c(C(=O)N[C@H]3CCOc4ccccc43)cnc2c1-c1cc(F)cc(F)c1F` [Compound 106] and `Cc1sc2c(N3CCOCC3)c(C(=O)N[C@H]3CCOc4ccccc43)cnc2c1-c1cc(F)cc(F)c1` [Compound 107] cannot be ordered by EC50: greater than 30 µM for the first, greater than 30 µM for the second.

`Cc1sc2c(N3CCOCC3)c(C(=O)Nc3cccc4ccccc34)cnc2c1-c1cc(Cl)cc(Cl)c1` [Compound 70] and `O=C(Nc1cccc2ccccc12)c1cnc2c(-c3cc(Cl)cc(Cl)c3)csc2c1N1CCOCC1` [Compound 49] cannot be ordered by EC50: greater than 30 µM for the first, greater than 30 µM for the second.

`O=C(N[C@H]1CCOc2ccccc21)c1cnc2c(-c3cccc(C(F)(F)F)c3)csc2c1N1CCC1` [Compound 90] and `O=C(N[C@H]1CCOc2ccccc21)c1cnc2c(-c3cccc(F)c3F)csc2c1N1CCOCC1` [Compound 24] cannot be ordered by EC50: greater than 30 µM for the first, greater than 30 µM for the second.

`C[C@H](NC(=O)c1cnc2c(-c3cccc(Cl)c3Cl)csc2c1N(C)C)c1ccccc1` [Compound 11] and `C[C@H](NC(=O)c1cnc2c(-c3cccc(Cl)c3Cl)csc2c1N1CCOCC1)c1ccccc1` [Compound 5] cannot be ordered by EC50: greater than 30 µM for the first, greater than 30 µM for the second.

`O=C(N[C@H]1CCOc2ccccc21)c1cnc2c(-c3cc(Cl)cc(Cl)c3)csc2c1N1CC(F)(F)C1` [Compound 76] and `O=C(NC1CCOc2ccccc21)c1cnc2c(-c3cccc(Cl)c3Cl)csc2c1N1CC(F)(F)C1` (stereo not shown) [Compound 27] cannot be ordered by EC50: greater than 30 µM for the first, greater than 30 µM for the second.

`O=C1CCN(c2c(C(=O)N[C@H]3CCOc4ccccc43)cnc3c(-c4cc(Cl)cc(Cl)c4)csc23)CC1` [Compound 52] and `CN1CCN(c2c(C(=O)N[C@H]3CCOc4ccccc43)cnc3c(-c4cc(Cl)cc(Cl)c4)csc23)CC1` [Compound 19] cannot be ordered by EC50: greater than 30 µM for the first, greater than 30 µM for the second.

Compared with `O=C(N[C@H]1CCOc2ccccc21)c1cnc2c(-c3cccc(Cl)c3Cl)csc2c1N1CCOCC1` [Compound 4, (S)—N-(chroman-4-yl)-3-(2,3-dichlorophenyl)-7-morpholinothieno[3,2-b]pyridine-6-carboxamide], `Cc1sc2c(N3CCOCC3)c(C(=O)N[C@H]3CCCc4ccccc43)cnc2c1-c1cccc(Cl)c1Cl` [Compound 71] is higher in EC50: 5 to 10 µM for the first, greater than 30 µM for the second. The first is the more potent here.

`CN(C)c1c(C(=O)N[C@H]2CCc3ccccc32)cnc2c(-c3cccc(Cl)c3Cl)csc12` [Compound 12] and `Cc1sc2c(N(C)C)c(C(=O)N[C@H]3CCc4ccccc43)cnc2c1-c1cccc(Cl)c1Cl` [Compound 34] cannot be ordered by EC50: greater than 30 µM for the first, greater than 30 µM for the second.

`Cc1sc2c(N(C)C)c(C(=O)N[C@H]3CCOc4ccccc43)cnc2c1-c1cccc(C(F)(F)F)c1` [Compound 104] and `Cc1cccc(-c2csc3c(N(C)C)c(C(=O)N[C@H]4CCOc5ccccc54)cnc23)c1C` [Compound 75] cannot be ordered by EC50: greater than 30 µM for the first, greater than 30 µM for the second.

`O=C(N[C@H]1CCOc2ccccc21)c1cnc2c(-c3cc(F)cc(F)c3)csc2c1N1CC(F)C1` [Compound 92] and `CN(C)c1c(C(=O)N[C@H]2CCOc3ccccc32)cnc2c(-c3cc(Cl)cc(Cl)c3)csc12` [Compound 7] cannot be ordered by EC50: greater than 30 µM for the first, greater than 30 µM for the second.

`C[C@H](NC(=O)c1cnc2c(-c3cc(Cl)cc(Cl)c3)csc2c1N1CCOCC1)c1ccccc1` [Compound 2] and `Cc1sc2c(N3CCOCC3)c(C(=O)N[C@H]3CCc4ccccc43)cnc2c1-c1cccc(OC(F)(F)F)c1` [Compound 113] cannot be ordered by EC50: greater than 30 µM for the first, greater than 30 µM for the second.
